Laboratory results: PMC7554884, “Small Molecule Inhibitors of DYRK1A Identified by Computational and Experimental Approaches” (International Journal of Molecular Sciences, 2020)
Read-outs that look alike come from different tables or passages of the source.

Key:
GSK3β = details: read-out: IC50 against GSK3β, cited from earlier work
DYRK1A(h) = target: T1, DYRK1A(h) (Homo sapiens, UniProt Q13627); assay: In vitro enzymatic assay (Eurofins, radiometric 33P-ATP); type: biochemical; details: for inhibition at 10 µM / % inhibition at 10 μM: DYRK1A; for IC50: read-out: IC50 values against DYRK1A
T1 construct: purchased Eurofins Scientific Inc. Korea (contract assay service)
Protocol: Enzymatic assays were performed by Eurofins Scientific Inc. Korea (Brussels, Belgium). […] The reaction was initiated by the addition of the MgATP mix. After incubation for 40 min at room temperature, the reaction was stopped by the addition of 3% phosphoric acid solution. Then, 10 μL of the reaction was then spotted onto a P30 filtermat and washed three times for 5 min in 75 mM phosphoric acid and once in methanol prior to drying and scintillation counting. […] All assays were performed in duplicate, and the average IC50 value was reported.

DYRK1A = tested on: DYRK1A; set-up: method as in PMID 30170319; details: staurosporine; read-out: IC50 against DYRK1A; cited from earlier work
[1] = as summarised in the discussion

SMILES | inhibition at 10 µM (DYRK1A(h)) | IC50 (DYRK1A(h); duplicate, average) | further results
N#Cc1ccc2[nH]c(O)c(-c3ccc(CN4CCOCC4)cn3)c2c1 [AZD1080, 2-hydroxy-3-(5-(morpholinomethyl)pyridin-2-yl)-1H-indole-5-carbonitrile, reference compound] | 71% | 2.91 µM | IC50 (GSK3β; AZD1080): 0.031 µM
CC(C)c1nn(C)cc1-c1nc2c(N3CCN(Cc4cccnc4)CC3)c(Br)cnc2[nH]1 [Compound 1, 6-bromo-2-(3-isopropyl-1-methyl-1H-pyrazol-4-yl)-7-(4-(pyridin-3-ylmethyl)piperazin-1-yl)-3H-imidazo(4,5-b)pyridine] | 70% | 6.77 µM | –
COC(=O)c1sc2ncnc(Nc3cccc(OC)c3)c2c1C [Compound 2, methyl 4-((3-methoxyphenyl)amino)-5-methylthieno (2,3-d)pyrimidine-6-carboxylate] | 58% | 5.71 µM | –
O=C(O)c1cc2cc(Br)ccc2s1 [Compound 3, 5-bromobenzo[b]thiophene-2-carboxylic acid] | 82% | 3.25 µM | IC50 (DYRK1A(h); [1]): ~3.2 µM
N#Cc1cccc2sc(C(=O)O)cc12 [Compound 4, 4-cyanobenzo[b]thiophene-2-carboxylic acid] | 71% | 3.24 µM | IC50 (DYRK1A(h); [1]): ~3.2 µM
COc1ccc(Nc2cc(C)nc(Nc3ccc(OC)cc3)n2)cc1 [Compound 5, N^2,N^4-bis(4-methoxyphenyl)-6-methylpyrimidine-2,4-diamine] | < 40% | – | % inhibition at 10 μM (DYRK1A(h)): 27%
O=C(O)c1cccc(Nc2nc(-c3ccccc3)c3cc(Br)ccc3n2)c1 [Compound 6, 3-((6-bromo-4-phenylquinazolin-2-yl)amino)benzoic acid] | 76% | 5.83 µM | –
COc1ccc(Nc2ncc(F)c(N3CCOCC3)n2)cc1 [Compound 7, 5-fluoro-N-(4-methoxyphenyl)-4-morpholinopyrimidin-2-amine] | < 40% | – | % inhibition at 10 μM (DYRK1A(h)): 33%
